#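 Each compound was tested at five concentrations against cells in 96-well plates for 48 hours. GI50: concentration for 50% inhibition of growth. TGI denotes the concentration required for complete inhibition of growth.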
# Legend:
# Experiment in all cases: NCI anticancer screen, dose series, 48 h
# [1] = test system: RPMI-8226 leukemia
# [2] = test system: EKVX NSCLC
# [3] = test system: OVCAR-5 ovarian
# [4] = test system: NCI/ADR-RES ovarian
# [5] = test system: UACC-257 melanoma
# [6] = test system: IGROV1 ovarian
# [7] = test system: KM12 colon
# [8] = test system: SN12C renal
# [9] = test system: CAKI-1 renal
# [10] = test system: SK-MEL-2 melanoma
# [11] = test system: SW-620 colon
# [12] = test system: NCI-H522 lung
# [13] = test system: HOP-62 NSCLC
# [14] = test system: HL-60(TB) leukemia
# [15] = test system: SNB-19 CNS
# [16] = test system: HOP-92 NSCLC
# [17] = test system: SF-539 CNS
# [18] = test system: TK-10 renal
# [19] = test system: T-47D breast
# [20] = test system: SK-MEL-5 melanoma
# [21] = test system: M14 melanoma
# [22] = test system: SR leukemia
# [23] = test system: K-562 leukemia
# [24] = test system: MCF7 breast
# [25] = test system: UACC-62 melanoma
# [26] = test system: HS 578T breast
# [27] = test system: NCI-H23 lung
# [28] = test system: OVCAR-8 ovarian
# [29] = test system: MOLT-4 leukemia
# [30] = test system: LOX IMVI melanoma
# [31] = test system: SK-MEL-28 melanoma
# [32] = test system: BT-549 breast
# [33] = test system: A498 renal
# [34] = test system: MDA-MB-435
# [35] = test system: PC-3 prostate
# [36] = test system: NCI-H226 lung
# [37] = test system: MALME-3M melanoma
# [38] = test system: HT29 colon
# [39] = test system: HCT-15 colon
# [40] = test system: SF-268 CNS
# [41] = test system: SNB-75 CNS
# [42] = test system: U251 CNS
# [43] = test system: NCI-H460 lung
# [44] = test system: UO-31 renal
# [45] = test system: DU-145 prostate
# [46] = test system: CCRF-CEM leukemia
# [47] = test system: COLO 205 colon
# [48] = test system: MDA-MB-231 breast
# [49] = test system: SF-295 CNS
# [50] = test system: 786-0 renal
# [51] = test system: HCC-2998 colon
# [52] = test system: A549 NSCLC
# [53] = test system: SK-OV-3 ovarian
# [54] = test system: HCT-116 colon
# [55] = test system: OVCAR-4 ovarian
# [56] = test system: OVCAR-3 ovarian
# [57] = test system: ACHN renal
structure (smiles),measurement,setting,value
COc1ccc(Cn2cc3c(c2-c2cc(OC)c(OC)c(OC)c2)CCc2c(CO)noc2-3)cc1,GI50,[1],410 nM
same,TGI,[1],13600 nM
same,GI50,[2],644 nM
same,TGI,[2],> 76900 nM
same,GI50,[3],543 nM
same,TGI,[3],> 82300 nM
same,GI50,[4],294 nM
same,TGI,[4],> 57000 nM
same,GI50,[5],16500 nM
same,TGI,[5],50200 nM
same,GI50,[6],596 nM
same,TGI,[6],32100 nM
same,GI50,[7],341 nM
same,TGI,[7],17900 nM
same,GI50,[8],765 nM
same,TGI,[8],19200 nM
same,GI50,[9],342 nM
same,TGI,[9],20100 nM
same,GI50,[10],455 nM
same,TGI,[10],19500 nM
same,GI50,[11],381 nM
same,TGI,[11],> 100000 nM
same,GI50,[12],206 nM
same,TGI,[12],12200 nM
same,GI50,[13],397 nM
same,TGI,[13],25700 nM
same,GI50,[14],231 nM
same,TGI,[14],656 nM
same,GI50,[15],430 nM
same,TGI,[15],21400 nM
same,GI50,[16],2970 nM
same,TGI,[16],22200 nM
same,GI50,[17],213 nM
same,TGI,[17],658 nM
same,GI50,[18],17700 nM
same,TGI,[18],55200 nM
same,GI50,[19],376 nM
same,TGI,[19],59300 nM
same,GI50,[20],334 nM
same,TGI,[20],11900 nM
same,GI50,[21],215 nM
same,TGI,[21],2880 nM
same,GI50,[22],194 nM
same,TGI,[22],23200 nM
same,GI50,[23],313 nM
same,TGI,[23],> 100000 nM
same,GI50,[24],176 nM
same,TGI,[24],17800 nM
same,GI50,[25],354 nM
same,TGI,[25],20700 nM
same,GI50,[26],371 nM
same,TGI,[26],35800 nM
same,GI50,[27],612 nM
same,TGI,[27],42100 nM
same,GI50,[28],417 nM
same,TGI,[28],19600 nM
same,GI50,[29],458 nM
same,TGI,[29],27800 nM
same,GI50,[30],615 nM
same,TGI,[30],16600 nM
same,GI50,[31],4350 nM
same,TGI,[31],24500 nM
same,GI50,[32],608 nM
same,TGI,[32],7340 nM
same,GI50,[33],187 nM
same,TGI,[33],3030 nM
same,GI50,[34],60.5 nM
same,TGI,[34],245 nM
same,GI50,[35],309 nM
same,TGI,[35],41900 nM
same,GI50,[36],2940 nM
same,TGI,[36],38200 nM
same,GI50,[37],2460 nM
same,TGI,[37],29300 nM
same,GI50,[38],323 nM
same,TGI,[38],13000 nM
same,GI50,[39],315 nM
same,TGI,[39],27100 nM
same,GI50,[40],1580 nM
same,TGI,[40],26500 nM
same,GI50,[41],177 nM
same,TGI,[41],24400 nM
same,GI50,[42],349 nM
same,TGI,[42],15500 nM
same,GI50,[43],341 nM
same,TGI,[43],13600 nM
same,GI50,[44],639 nM
same,TGI,[44],22400 nM
same,GI50,[45],361 nM
same,TGI,[45],16000 nM
same,GI50,[46],347 nM
same,TGI,[46],23700 nM
same,GI50,[47],339 nM
same,TGI,[47],4280 nM
same,GI50,[48],629 nM
same,TGI,[48],19000 nM
same,GI50,[49],225 nM
same,TGI,[49],15200 nM
same,GI50,[50],493 nM
same,TGI,[50],24700 nM
same,GI50,[51],1080 nM
same,TGI,[51],19200 nM
same,GI50,[52],439 nM
same,TGI,[52],> 100000 nM
same,GI50,[53],428 nM
same,TGI,[53],31100 nM
same,GI50,[54],311 nM
same,TGI,[54],11400 nM
same,GI50,[55],4200 nM
same,TGI,[55],51600 nM
same,GI50,[56],312 nM
same,TGI,[56],12900 nM
same,GI50,[57],659 nM
same,TGI,[57],45000 nM

# From PubChem BioAssay (NCI)
